Measurements from patent US11498899B2, “Nitrone herbicides” (FMC Corporation, priority 2016, dated 2022).

Assays:
[1] = test system: barnyardgrass (Echinochloa crus-galli); test: Test A preemergence, visual injury rating 0-100 (0 no effect, 100 complete control); assay type: in vivo; conditions: for Barnyardgrass plant response rating (0 to 100 scale): 125 g ai/ha; for Barnyardgrass plant response rating: 500 g ai/ha, 0 to 100 scale
[2] = test system: foxtail, green (green foxtail, Setaria viridis); test: Test A preemergence, visual injury rating 0-100; assay type: in vivo
kochia (Kochia scoparia) [3] = test: Test A preemergence, visual injury rating 0-100; assay type: in vivo
[4] = test system: pigweed (Amaranthus retroflexus); test: Test A preemergence, visual injury rating 0-100; assay type: in vivo
[5] = test system: ragweed (common ragweed, Ambrosia elatior); test: Test A preemergence, visual injury rating 0-100; assay type: in vivo
[6] = test system: ryegrass, Italian (Italian ryegrass, Lolium multiflorum); test: Test A preemergence, visual injury rating 0-100; assay type: in vivo
[7] = test system: barnyardgrass (Echinochloa crus-galli); test: Test A postemergence, visual injury rating 0-100; assay type: in vivo; conditions: 0 to 100 scale
[8] = test system: blackgrass (Alopecurus myosuroides); test: Test A postemergence, visual injury rating 0-100; assay type: in vivo; conditions: 0 to 100 scale
corn (Zea mays) = test: Test A postemergence, visual injury rating 0-100; assay type: in vivo; conditions: 0 to 100 scale
[9] = test system: foxtail, green (green foxtail, Setaria viridis); test: Test A postemergence, visual injury rating 0-100; assay type: in vivo; conditions: 0 to 100 scale
kochia (Kochia scoparia) [10] = test: Test A postemergence, visual injury rating 0-100; assay type: in vivo; conditions: 0 to 100 scale
[11] = test system: pigweed (Amaranthus retroflexus); test: Test A postemergence, visual injury rating 0-100; assay type: in vivo; conditions: 0 to 100 scale
[12] = test system: ragweed (common ragweed, Ambrosia elatior); test: Test A postemergence, visual injury rating 0-100; assay type: in vivo; conditions: 0 to 100 scale
[13] = test system: ryegrass, Italian (Italian ryegrass, Lolium multiflorum); test: Test A postemergence, visual injury rating 0-100; assay type: in vivo; conditions: 0 to 100 scale
[14] = test system: wheat (Triticum aestivum); test: Test A postemergence, visual injury rating 0-100; assay type: in vivo; conditions: 0 to 100 scale
[15] = test system: ducksalad (Heteranthera limosa); test: Test B flooded paddy test, visual rating 0-100; conditions: Flood, 250 g ai/ha, applied to paddy water, rated after 13 to 15 days
[16] = test system: barnyardgrass (Echinochloa crus-galli); test: Test B flooded paddy test, visual rating 0-100; conditions: Flood, 250 g ai/ha, applied to paddy water, rated after 13 to 15 days
rice (Oryza sativa) = test: Test B flooded paddy test, visual rating 0-100 (0 no effect, 100 complete control); conditions: Flood, 250 g ai/ha, applied to paddy water, rated after 13 to 15 days

| SMILES | Barnyardgrass plant response rating (0 to 100 scale) [1] | Barnyardgrass plant response rating [1] | Foxtail, Green plant response rating (0 to 100 scale) ([2]; 125 g ai/ha) | Foxtail, Green plant response rating (0 to 100 scale) ([2]; 500 g ai/ha) | Kochia plant response rating (0 to 100 scale) (kochia (Kochia scoparia) [3]; 125 g ai/ha) | Kochia plant response rating (0 to 100 scale) (kochia (Kochia scoparia) [3]; 500 g ai/ha) | Pigweed plant response rating (0 to 100 scale) ([4]; 125 g ai/ha) | Pigweed plant response rating (0 to 100 scale) ([4]; 500 g ai/ha) | Ragweed plant response rating (0 to 100 scale) ([5]; 125 g ai/ha) | Ragweed plant response rating (0 to 100 scale) ([5]; 500 g ai/ha) | Ryegrass, Italian plant response rating (0 to 100 scale) ([6]; 125 g ai/ha) | Ryegrass, Italian plant response rating (0 to 100 scale) ([6]; 500 g ai/ha) | Barnyardgrass plant response rating ([7]; 125 g ai/ha) | Barnyardgrass plant response rating ([7]; 500 g ai/ha) | Blackgrass plant response rating ([8]; 125 g ai/ha) | Blackgrass plant response rating ([8]; 500 g ai/ha) | Corn plant response rating (corn (Zea mays); 125 g ai/ha) | Corn plant response rating (corn (Zea mays); 500 g ai/ha) | Foxtail, Green plant response rating ([9]; 125 g ai/ha) | Foxtail, Green plant response rating ([9]; 500 g ai/ha) | further results |
| --- | --- | --- | --- | --- | --- | --- | --- | --- | --- | --- | --- | --- | --- | --- | --- | --- | --- | --- | --- | --- | --- |
| CC1=[N+]([O-])C(C(=O)Nc2ccncc2C(F)(F)F)C(c2ccc(C(F)(F)F)cc2)C1 (racemic) [Compound 36] | 70 | 60 | 0 | 100 | 0 | 90 | 0 | 60 | 0 | 80 | 10 | 60 | 0 | 0 | 20 | 20 | 20 | 0 | 0 | 20 | Kochia plant response rating (kochia (Kochia scoparia) [10]; 125 g ai/ha): 0; Kochia plant response rating (kochia (Kochia scoparia) [10]; 500 g ai/ha): 0; Pigweed plant response rating ([11]; 125 g ai/ha): 0; Pigweed plant response rating ([11]; 500 g ai/ha): 0; Ragweed plant response rating ([12]; 125 g ai/ha): 0; Ragweed plant response rating ([12]; 500 g ai/ha): 0; Ryegrass, Italian plant response rating ([13]; 500 g ai/ha): 20; Wheat plant response rating ([14]; 125 g ai/ha): 0; Wheat plant response rating ([14]; 500 g ai/ha): 0; Ducksalad plant response rating (0 to 100 scale) [15]: 0; Barnyardgrass plant response rating (0 to 100 scale) [16]: 30; Rice plant response rating (0 to 100 scale) (rice (Oryza sativa)): 0 |
| CC1=[N+]([O-])C(C(=O)Nc2ccc(F)c(F)c2F)C(c2ccc(C(F)(F)F)cc2)C1 (racemic) [Compound 38] | 90 | 100 | 100 | 100 | 0 | 90 | 30 | 80 | 30 | 90 | 30 | 50 | 90 | 60 | 40 | 70 | 20 | 70 | 70 | 90 | Kochia plant response rating (kochia (Kochia scoparia) [10]; 125 g ai/ha): 0; Kochia plant response rating (kochia (Kochia scoparia) [10]; 500 g ai/ha): 0; Pigweed plant response rating ([11]; 125 g ai/ha): 0; Pigweed plant response rating ([11]; 500 g ai/ha): 30; Ragweed plant response rating ([12]; 125 g ai/ha): 0; Ragweed plant response rating ([12]; 500 g ai/ha): 20; Ryegrass, Italian plant response rating ([13]; 125 g ai/ha): 30; Ryegrass, Italian plant response rating ([13]; 500 g ai/ha): 20; Wheat plant response rating ([14]; 125 g ai/ha): 30; Wheat plant response rating ([14]; 500 g ai/ha): 60; Ducksalad plant response rating (0 to 100 scale) [15]: 65; Barnyardgrass plant response rating (0 to 100 scale) [16]: 60; Rice plant response rating (0 to 100 scale) (rice (Oryza sativa)): 0 |
| CC1=[N+]([O-])C(C(=O)Nc2ccccc2S(C)(=O)=O)C(c2ccc(C(F)(F)F)cc2)C1 (racemic) [Compound 43] | 20 | 100 | 80 | 100 | 0 | 80 | 40 | 90 | 0 | 100 | 0 | 0 | 20 | 60 | 0 | 30 | 0 | 0 | 20 | 60 | Kochia plant response rating (kochia (Kochia scoparia) [10]; 125 g ai/ha): 0; Kochia plant response rating (kochia (Kochia scoparia) [10]; 500 g ai/ha): 0; Pigweed plant response rating ([11]; 125 g ai/ha): 0; Pigweed plant response rating ([11]; 500 g ai/ha): 0; Ragweed plant response rating ([12]; 125 g ai/ha): 0; Ragweed plant response rating ([12]; 500 g ai/ha): 0; Ryegrass, Italian plant response rating ([13]; 125 g ai/ha): 0; Ryegrass, Italian plant response rating ([13]; 500 g ai/ha): 20; Wheat plant response rating ([14]; 125 g ai/ha): 0; Wheat plant response rating ([14]; 500 g ai/ha): 0; Ducksalad plant response rating (0 to 100 scale) [15]: 0; Barnyardgrass plant response rating (0 to 100 scale) [16]: 0; Rice plant response rating (0 to 100 scale) (rice (Oryza sativa)): 0 |
| CC1=[N+]([O-])C(C(=O)Nc2ccccc2[S+](C)[O-])C(c2ccc(C(F)(F)F)cc2)C1 (racemic) [Compound 44] | 0 | 70 | 0 | 100 | 0 | 0 | 20 | 90 | 0 | 80 | 0 | 0 | 0 | 0 | 0 | 20 | 0 | 0 | 0 | 30 | Kochia plant response rating (kochia (Kochia scoparia) [10]; 125 g ai/ha): 0; Kochia plant response rating (kochia (Kochia scoparia) [10]; 500 g ai/ha): 10; Pigweed plant response rating ([11]; 125 g ai/ha): 0; Pigweed plant response rating ([11]; 500 g ai/ha): 20; Ragweed plant response rating ([12]; 125 g ai/ha): 0; Ragweed plant response rating ([12]; 500 g ai/ha): 0; Ryegrass, Italian plant response rating ([13]; 125 g ai/ha): 0; Ryegrass, Italian plant response rating ([13]; 500 g ai/ha): 0; Wheat plant response rating ([14]; 125 g ai/ha): 0; Wheat plant response rating ([14]; 500 g ai/ha): 0; Ducksalad plant response rating (0 to 100 scale) [15]: 0; Barnyardgrass plant response rating (0 to 100 scale) [16]: 0; Rice plant response rating (0 to 100 scale) (rice (Oryza sativa)): 0 |
